Results: ChEMBL document CHEMBL4665814, “Structurally Diverse Labdane Diterpenoids from Leonurus japonicus and Their Anti-inflammatory Properties in LPS-Induced RAW264.7 Cells” (J Nat Prod, 2020)
The source made the active and inactive calls. The calls are words filed in the database; no cut-off is given here.

Tests used:
RAW264.7 [1] = assay: Anti-inflammatory activity in mouse RAW264.7 cells assessed as inhibition of LPS-induced NO production preincubated for 2 hrs followed by LPS addition and measured after 18 hrs by Griess reagent-based assay; type: functional, cell-based
RAW264.7 [2] = assay: Anti-inflammatory activity in mouse RAW264.7 cells assessed as inhibition of LPS-induced TNF-alpha level after 24 hrs by ELISA; type: functional, cell-based
RAW264.7 [3] = assay: Anti-inflammatory activity in mouse RAW264.7 cells assessed as inhibition of LPS-induced IL-1beta level after 24 hrs by ELISA; type: functional, cell-based
RAW264.7 [4] = assay: Cytotoxicity against mouse RAW264.7 cells assessed as reduction in cell viability at 3.1 to 25 uM after 48 hrs by MTT assay; type: cell-based; details: raw264.7, 48 h, dose 3.1-25 µM
RAW264.7 [5] = assay: Anti-inflammatory activity in mouse RAW264.7 cells assessed as inhibition of LPS-induced IL-6 level after 24 hrs by ELISA; type: functional, cell-based
[6] = biological target: T1, Inhibitor of nuclear factor kappa-B kinase subunit beta (Mus musculus) (UniProt O88351); assay: Inhibition of IKKbeta in mouse RAW264.7 cells assessed as inhibition of LPS-induced IKK-beta phosphorylation level after 16 hrs by Western blot analysis; type: cell-based
T1 sequence (whole entry): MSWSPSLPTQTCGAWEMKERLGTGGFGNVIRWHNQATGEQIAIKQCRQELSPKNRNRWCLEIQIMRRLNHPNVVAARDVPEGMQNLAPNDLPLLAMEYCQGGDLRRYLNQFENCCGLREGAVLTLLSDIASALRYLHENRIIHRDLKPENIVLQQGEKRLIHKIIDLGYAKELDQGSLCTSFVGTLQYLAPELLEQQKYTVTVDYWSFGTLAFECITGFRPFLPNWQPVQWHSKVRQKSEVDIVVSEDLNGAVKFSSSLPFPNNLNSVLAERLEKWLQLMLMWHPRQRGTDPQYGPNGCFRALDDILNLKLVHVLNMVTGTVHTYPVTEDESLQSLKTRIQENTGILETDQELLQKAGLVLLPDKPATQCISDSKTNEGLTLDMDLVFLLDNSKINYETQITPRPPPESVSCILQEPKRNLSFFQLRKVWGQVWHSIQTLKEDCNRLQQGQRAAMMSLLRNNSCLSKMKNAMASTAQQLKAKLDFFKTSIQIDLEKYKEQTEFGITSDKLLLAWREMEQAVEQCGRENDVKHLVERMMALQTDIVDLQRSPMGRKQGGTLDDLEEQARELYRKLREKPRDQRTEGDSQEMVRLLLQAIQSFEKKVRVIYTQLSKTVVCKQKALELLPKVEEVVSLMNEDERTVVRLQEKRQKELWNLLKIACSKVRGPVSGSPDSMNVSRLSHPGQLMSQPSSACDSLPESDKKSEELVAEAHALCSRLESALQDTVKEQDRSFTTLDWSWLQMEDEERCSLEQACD

RAW264.7 [7] = assay: Anti-inflammatory activity in mouse RAW264.7 cells assessed as inhibition of LPS-induced COX-2 level after 16 hrs by Western blot analysis; type: functional, cell-based
RAW264.7 [8] = assay: Anti-inflammatory activity in mouse RAW264.7 cells assessed as inhibition of LPS-induced iNOS level after 16 hrs by Western blot analysis; type: functional, cell-based
[9] = biological target: T2, Inhibitor of nuclear factor kappa-B kinase subunit alpha (Mus musculus) (UniProt Q60680); assay: Inhibition of IKKalpha in mouse RAW264.7 cells assessed as inhibition of LPS-induced IKK-alpha phosphorylation level after 16 hrs by Western blot analysis; type: cell-based
T2 sequence (whole entry): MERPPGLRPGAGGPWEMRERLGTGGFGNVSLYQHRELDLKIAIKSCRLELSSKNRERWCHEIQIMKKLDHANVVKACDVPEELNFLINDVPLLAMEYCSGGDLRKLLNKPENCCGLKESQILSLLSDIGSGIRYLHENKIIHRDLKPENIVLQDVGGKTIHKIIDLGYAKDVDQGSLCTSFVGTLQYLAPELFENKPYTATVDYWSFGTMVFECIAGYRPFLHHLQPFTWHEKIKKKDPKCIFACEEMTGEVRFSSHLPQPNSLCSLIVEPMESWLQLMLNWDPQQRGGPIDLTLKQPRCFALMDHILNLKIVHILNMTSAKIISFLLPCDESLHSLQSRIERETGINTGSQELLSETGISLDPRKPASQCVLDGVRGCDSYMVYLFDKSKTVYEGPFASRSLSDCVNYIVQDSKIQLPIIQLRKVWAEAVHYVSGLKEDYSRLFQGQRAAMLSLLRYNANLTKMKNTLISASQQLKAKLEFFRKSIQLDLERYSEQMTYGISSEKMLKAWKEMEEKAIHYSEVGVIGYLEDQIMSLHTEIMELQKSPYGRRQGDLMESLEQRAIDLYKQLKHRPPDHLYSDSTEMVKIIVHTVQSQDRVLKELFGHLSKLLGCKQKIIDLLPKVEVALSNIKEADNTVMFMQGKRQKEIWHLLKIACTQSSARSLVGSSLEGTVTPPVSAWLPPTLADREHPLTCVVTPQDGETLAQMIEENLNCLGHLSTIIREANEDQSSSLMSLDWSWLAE

Row | IC50 (RAW264.7 [1]) [µM] | SMILES | further results
1 | > 50 | CC(=O)O[C@@H]1CC[C@]2(C)C(CCC3=CCOC3=O)=C(C)C(=O)[C@@H](O)[C@H]2C1(C)C | 
2 | > 50 | CC1=C(CCc2ccoc2)[C@@]2(C)CCC(=O)C(C)(C)C2=C(O)C1=O | 
3 | > 50 | CC(=O)O[C@@H]1CC[C@@]2(C)[C@@H](C(=O)[C@H](O)[C@@H](C)[C@]2(O)CCc2ccoc2)C1(C)C | 
4 | 24.7 | COC1C=C(CC[C@@]2(O)[C@H](C)C(=O)[C@@H](O)[C@H]3C(C)(C)CCC[C@@]32C)C(=O)O1 (stereo partly specified) | 
5 | > 50 | CCC(=O)[C@H]1O[C@@](CCC2=CC(OC)OC2=O)(OC)[C@@]2(C)CC[C@@H](OC(C)=O)C(C)(C)[C@H]12 (stereo partly specified) | 
6 | > 50 | CCOC1CC(O)(CCC2=C(C)C(=O)[C@@H](O)[C@H]3C(C)(C)CCC[C@]23C)CO1 (stereo partly specified) | 
7 | > 50 | CCC(O)C(=O)[C@H]1C(C)(C)C(=O)CC[C@]1(C)C(=O)CCc1ccoc1 (stereo partly specified) | 
8 | 22.9 | CCOC1CC(O)(CCC2=C(C)C(=O)C(O)=C3C(C)(C)C(=O)CC[C@]23C)CO1 (stereo partly specified) | 
9 | > 50 | CCC(=O)[C@H]1O[C@@](CCc2ccoc2)(OC)[C@@]2(C)CCCC(C)(C)[C@H]12 | 
10 | 24.3 | C[C@@H]1C[C@H]2[C@@H]3CCC4=CC(=O)C=C[C@]4(C)[C@@]3(F)[C@@H](O)C[C@]2(C)[C@@]1(O)C(=O)CO [DEXAMETHASONE] | 
11 | 26.4 | COC1CC(O)(CCC2=C(C)C(=O)[C@@H](O)[C@H]3C(C)(C)CCC[C@]23C)CO1 (stereo partly specified) | 
12 | 27.5 | COC1C=C(CCC2=C(C)C(=O)[C@@H](O)[C@H]3C(C)(C)[C@H](O)CC[C@]23C)C(=O)O1 (stereo partly specified) | 
13 | > 50 | C[C@@H]1C(=O)C(O)=C2C(C)(C)C(=O)CC[C@]2(C)[C@@]1(O)CCc1ccoc1 | 
14 | > 50 | COC(OC)[C@@]1(C)CCC[C@@]2(C)[C@H]1CC=C(C)[C@@H]2CC/C(C)=C/CO | 
15 | 21.7 | CCOC1CC(O)(CCC2=C(C)C(=O)C(O)=C3C(C)(C)[C@H](OC(C)=O)CC[C@]23C)CO1 (stereo partly specified) | 
16 | > 50 | CO[C@@H]1C=C(CCC2=C(C)C(=O)C(O)=C3C(C)(C)C(=O)CC[C@]23C)C(=O)O1 | 
17 | > 50 | CC1=C(CCc2ccoc2)[C@@]2(C)CCCC(C)(C)[C@@H]2[C@H](O)C1=O | 
18 | > 50 | C[C@H]1C(=O)[C@@H](O)[C@H]2C(C)(C)C(=O)CC[C@]2(C)[C@@]1(O)CCc1ccoc1 | 
19 | > 50 | CCC(=O)C1O[C@](O)(CCc2ccoc2)[C@@]2(C)CCCC(C)(C)[C@H]12 (single isomer, unassigned) | 

Row | IC50 (RAW264.7 [1]) [µM] | SMILES | further results
20 | 20 | CC1=CC[C@H]2C(C)(C)CCC[C@]2(C)[C@H]1CC/C(C)=C/CO | 
21 | > 50 | CC1=C(CCc2ccoc2)[C@@]2(C)CC[C@@H](O)C(C)(C)[C@@H]2[C@H](O)C1=O | 
22 | 21.9 | CCC(=O)[C@H]1O[C@@](CCC2=CCOC2=O)(OC)[C@@]2(C)CCCC(C)(C)[C@H]12 | 
23 | 40.8 | COC1C=C(CCC2=C(C)C(=O)C(O)=C3C(C)(C)[C@H](OC(C)=O)CC[C@]23C)C(=O)O1 (stereo partly specified) | 
24 | 30.4 | CCOC1CC(O)(CCC2=C(C)C(=O)[C@@H](O)[C@H]3C(C)(C)[C@H](OC(C)=O)CC[C@]23C)CO1 (stereo partly specified) | 
25 | > 50 | C[C@@H]1[C@@H](O)C(=O)[C@H]2C(C)(C)CCC[C@]2(C)[C@@]1(O)CCc1ccoc1 | 
26 | 43.9 | CC1=C(CCC2=CCOC2=O)[C@@]2(C)CCCC(C)(C)[C@@H]2CC1=O | 
27 | > 50 | CO[C@H]1C=C(CCC2=C(C)C(=O)C(O)=C3C(C)(C)C(=O)CC[C@]23C)C(=O)O1 | 
28 | 46.1 | CC1=C(CCc2ccoc2)[C@@]2(C)CCCC(C)(C)C2=C(O)C1=O | 
29 | > 50 | CC1=C(CCc2ccoc2)[C@@]2(C)CCC(=O)C(C)(C)[C@@H]2[C@@H](O)C1=O | 
30 | 29 | CC1=CC[C@@H]2[C@](C)(CCC[C@]2(C)C=O)[C@H]1CC/C(C)=C/CO | 
31 | 22.5 | CC(=O)O[C@@H]1CC[C@]2(C)C(CCc3ccoc3)=C(C)C(=O)[C@@H](O)[C@H]2C1(C)C | 
32 | 15.7 | CCC(=O)[C@H]1O[C@](O)(CCC2=CC(OC)OC2=O)[C@@]2(C)CCCC(C)(C)[C@H]12 (stereo partly specified) | 
33 | 3.9 | CCC(=O)[C@H]1O[C@@](CCC2=CC(OC)OC2=O)(OC)[C@@]2(C)CCCC(C)(C)[C@H]12 (stereo partly specified) | inhibition (RAW264.7 [2]): Dose-dependent effect; inhibition (RAW264.7 [3]): Dose-dependent effect; Activity (RAW264.7 [4]): Non-Toxic; inhibition (RAW264.7 [5]): Dose-dependent effect; inhibition [6]: Active; inhibition (RAW264.7 [7]): Active; inhibition (RAW264.7 [8]): Active; inhibition [9]: Active
34 | > 50 | CCC(O)C(=O)[C@H]1C(C)(C)CCC[C@]1(C)C(=O)CCC1=CCOC1=O (stereo partly specified) | 
35 | 33.4 | C=C1CC[C@H]2C(C)(C)CCC[C@]2(C)[C@H]1CC/C(C)=C/CO | 
36 | 33.4 | CC1=CC[C@H]2[C@@](C)(CO)CCC[C@]2(C)[C@H]1CC/C(C)=C/CO | 
37 | > 50 | CCC(=O)[C@H]1O/C(=C\Cc2ccoc2)[C@@]2(C)CCCC(C)(C)[C@H]12 | 
38 | 41.1 | CC1=CC[C@@H]2[C@](C)(CCC[C@]2(C)C(=O)O)[C@H]1CC/C(C)=C/CO | 
